Assay results: ChEMBL document CHEMBL1143695, “Synthesis and biological studies of novel 2-aminoalkylethers as potential antiarrhythmic agents for the conversion of atrial fibrillation” (J Med Chem, 2007)

Tests used:
[1] = system: Rattus norvegicus; test: CNS toxicity in iv dosed Sprague-Dawley rat assessed as cumulative convulsion dose; assay type: organism-based; details: in vivo
[2] = system: Rattus norvegicus; test: Antiarrhythmic activity in intravenously dosed Sprague-Dawley rat with ischemia-induced arrhythmia; assay type: functional, Heart
[3] = in vivo; details: CD1, mouse, iv
Description: Toxicity in intravenously dosed CD1 mouse

| SMILES | Activity [1] [µmol/kg] | ED50 [2] [µmol/kg/min] | LD50 [3] [µmol/kg] |
| --- | --- | --- | --- |
| FC(F)(F)c1ccccc1CCO[C@@H]1CCCC[C@H]1N1CCOCC1 | 134 | 0.8 |  |
| O=C1CCN([C@@H]2CCCC[C@@H]2OCCc2cccc3ccccc23)C1 | 145 | 1.6 |  |
| O=C1CCN([C@@H]2CCCC[C@H]2OCCc2cccc3ccccc23)CC1 | 75 | 0.9 |  |
| OC1CCN([C@@H]2CCCC[C@H]2OCCc2ccccc2Br)C1 (mixture of isomers) | 67 | 0.4 |  |
| O=C1CCN([C@@H]2CCCC[C@H]2OCC(c2ccccc2)c2ccccc2)C1 | 155 | 2.5 |  |
| COc1ccc(CCO[C@@H]2CCCC[C@H]2N2CCCC2)cc1OC | 118 | 1.3 |  |
| O=C1CCN([C@@H]2CCCC[C@H]2OCCc2csc3ccccc23)C1 | 203 |  |  |
| O=C1CCN([C@@H]2CCCC[C@H]2OCCCC2CCCCC2)C1 | 300 |  |  |
| c1ccc2c(CCO[C@@H]3CCCC[C@H]3N3CCOCC3)csc2c1 | 65 | 0.8 | 52 |
| O=C1CCN([C@@H]2CCCC[C@H]2OCCc2ccc(Br)c3ccccc23)C1 | 246 | 2.8 |  |
| Brc1ccc(CCO[C@@H]2CCCC[C@H]2N2CCOCC2)cc1 | 91 | 2.5 | 103 |
| c1ccc2cc(OCCO[C@@H]3CCCC[C@H]3N3CCOCC3)ccc2c1 | 62 |  |  |
| c1ccc2cc(CCO[C@@H]3CCCC[C@H]3N3CCOCC3)ccc2c1 | 85 | 0.8 | 130 |
| COc1ccc(CCCCO[C@@H]2CCCC[C@H]2N2CCOCC2)cc1OC | 67 | 1.5 |  |
| FC(F)(F)c1ccccc1CCO[C@H]1CCCC[C@H]1N1CCOCC1 (single isomer, unassigned) | 102 | 1.4 |  |
| c1ccc2c(CCO[C@@H]3CCCC[C@H]3N3CCCC3)cccc2c1 |  | 0.9 |  |
| COc1ccc(CCO[C@@H]2CCCC[C@H]2N2CCC3(C2)OCCO3)cc1OC | 91 | 1.6 |  |
| O=C1CCN([C@@H]2CCCC[C@H]2OCCc2ccccc2C(F)(F)F)C1 | 225 | 2.7 |  |
| Brc1ccc(CCO[C@@H]2CCCC[C@H]2N2CCOCC2)c(Br)c1 | 123 |  |  |
| C=C[C@H]1CN2CC[C@H]1C[C@@H]2[C@@H](O)c1ccnc2ccc(OC)cc12 [QUINIDINE] | 317 | 4 |  |
| Clc1cccc(Cl)c1CCO[C@@H]1CCCC[C@H]1N1CCSC1 | 331 | 6.5 |  |
| CC(=O)N1CCN([C@@H]2CCCC[C@H]2OCCc2ccc3ccccc3c2)CC1 | 67 |  |  |

| SMILES | Activity [1] [µmol/kg] | ED50 [2] [µmol/kg/min] | LD50 [3] [µmol/kg] |
| --- | --- | --- | --- |
| Brc1ccc(CCCO[C@@H]2CCCC[C@H]2N2CCOCC2)cc1 | 143 | 3.5 | 209 |
| c1ccc2c(CCO[C@@H]3CCCC[C@H]3N3CCC4(C3)OCCO4)cccc2c1 | 41 |  |  |
| Brc1cccc(CCO[C@@H]2CCCC[C@H]2N2CCOCC2)c1 | 131 | 1.9 |  |
| OC1CCN([C@@H]2CCCC[C@H]2OCCc2cccc3ccccc23)C1 (mixture of isomers) | 67 | 0.8 |  |
| c1ccc2cc(CCO[C@@H]3CCC[C@H]3N3CCOCC3)ccc2c1 | 187 | 1.5 |  |
| Brc1ccc(OCCO[C@@H]2CCCC[C@H]2N2CCOCC2)cc1 | 83 | 2.5 |  |
| COc1ccc(CCCO[C@@H]2CCCC[C@H]2N2CCOCC2)cc1OC | 109 | 1.5 | 112 |
| c1cc(CCO[C@@H]2CCCC[C@H]2N2CCOCC2)c2ccsc2c1 | 54 | 0.7 | 38 |
| COCCN(CCOC)[C@@H]1CCCC[C@H]1OCCc1ccc2ccccc2c1 | 83 | 3 |  |
| OC1CCN([C@@H]2CCCC[C@@H]2OCCc2cccc3ccccc23)C1 (mixture of isomers) | 70 | 0.4 |  |
| Clc1cccc(Cl)c1CCO[C@@H]1CCCC[C@H]1N1CCOCC1 | 86 | 1.2 | 76 |
| O=C1CCN([C@@H]2CCCC[C@H]2OCCc2ccccc2Br)C1 | 155 |  |  |
| COc1ccc(CCO[C@@H]2CCCC[C@H]2N2CCC(=O)C2)cc1OC | 235 | 4.5 |  |
| Clc1ccc(CCO[C@@H]2CCCC[C@H]2N2CCOCC2)c(Cl)c1 | 94 | 2.1 |  |
| Brc1ccc(CCO[C@H]2CCCC[C@H]2N2CCOCC2)cc1 (single isomer, unassigned) | 6.7 | 2 |  |
| c1cc(CCO[C@@H]2CCCC[C@H]2N2CCOCC2)c2ccoc2c1 |  | 1.4 | 56 |
| O=C1CCN([C@@H]2CCCC[C@H]2OCCc2ccc(Br)cc2Br)C1 | 246 |  |  |
| Brc1ccccc1CCO[C@@H]1CCCC[C@H]1N1CCOCC1 | 125 | 1 | 86 |
| COc1ccc(CCO[C@@H]2CCCC[C@H]2N2CCNCC2)cc1OC | 392 | 1.6 |  |
| COc1ccc(CCO[C@@H]2CCCC[C@H]2N2CCOCC2)cc1OC | 113 | 1.5 | 97 |
| O=C1CCN([C@@H]2CCCC[C@H]2OCCc2ccc(Br)cc2)C1 | 161 | 8 |  |
| COc1ccc(CCCO[C@@H]2CCCC[C@H]2N2CCOCC2)c(OC)c1 | 94 | 1.2 | 130 |
